Measurements from patent US12049444B2, “Monomethyl fumarate precursor drug compounds and pharmaceutical compositions thereof” (AGATHONBIO CO., LTD., priority 2019, dated 2024).
Counter-ions that a name gives are not always drawn.

Experiments:
[1] = cited from earlier work
[2] = rat, in vivo, po, 0.139 mmol/kg
Method: The test compounds and control compounds were each prepared in the same way and administered at a dose of 0.139 mmol/kg to rats, and after blood was collected at a predetermined time, plasma was separated. Analysis of the drug was performed using HPLC (XBridge column C18, Waters, mobile phase 0.1% formic acid:acetonitrile (30:70, %/%)) and MS/MS (ESI positive, MRM). Each commercial standard solution was mixed with rat blank plasma at a ratio of 9:1 to prepare standard solutions and calibrate at concentrations of 5, 50, 100, 500, 100 and 5,000 ng/ml. In addition, the QC sample was prepared at 100, 750 and 2,500 ng/ml concentrations by mixing rat blank plasma and QC standard solution in a 9:1 ratio. […] And the concentration of the active ingredient in rat plasma, that is, monomethyl fumarate, was quantified by applying the previously verified assay. For pharmacokinetic parameters, WinNonlin 5.2 (Pharsight, USA) program was used, and AUC0-t, AUC0-∞, Cmax, Tmax, and t1/2 were calculated by noncompartment modeling (best fit). Pharmacokinetic parameter results were expressed as mean (Mean) and standard deviation (SD), and statistically processed using the SPSS program (Statistical Package for the Social Sciences, 10.0K, USA).

AUC0-24 [2]	SMILES	safety in phase 1 clinical trial [1]
	COC(=O)/C=C/C(=O)OCCN1C(=O)CCC1=O [ALKS8700, diroximel fumarate]	proven to be safe
8280 ng·h/mL	CCN(CC)C(=O)COC(=O)/C=C/C(=O)OC [Reference Example 1, 2-(diethylamino)-2-oxoethyl Methyl Fumarate]	proven to be safe
